Patent US20230416330A1, “Optimized GIP Peptide Analogues” (Antag Therapeutics ApS, priority 2019, published 2023)
Starred links: 1 amine or outer side, 2 acyl side, 3 side chain; linkers in the order of their positions; H or OH if unused. Non-standard residues stand in square brackets, D forms with d. Residues, ends and D or L forms follow the SMILES beside them. Groups on a side chain read outwards from the residue. *: point of attachment. C20 diacid = O=C(O)CCCCCCCCCCCCCCCCCCC(=O)*; C16 diacid = O=C(O)CCCCCCCCCCCCCCC(=O)*; Glutaryl = O=C(CCCC(=O)[*:2])[*:1]; Aib = CC(C)(N)C(=O)O

Key:
[1] = Physical stability: fibril formation in Thioflavin T (ThT) assay with agitation; format: physicochemical; conditions: 25° C., agitation
Method: Continuous measurement of the fluorescence emission at 486 nm can be used as a measure of fibrillation behavior of peptides and proteins. The time until onset of fibrillation or fibrillation lag time is estimated here by defining the lag time (Tlag) as the point in time where the signal relative to the pre-transition baseline has reached 10% of the post-transition baseline.
50 mM sodium phosphate buffer for dissolving some samples was prepared in ultrapure water (Milli-Q® Reference A+ System, Merck) with a resistivity of 18.2 MΩ·cm. The buffer was adjusted to pH 7.4 and filtered.
The ultrapure water (MilliQ) for dissolving some samples was adjusted to pH 7.4 with NaOH and filtered prior to sample preparation.
(§1) Peptides were either dissolved in sodium phosphate buffer (50 mM, pH 7.4, filtered) or dissolved in ultrapure (MilliQ) water (adjusted to pH 7.4 with NaOH, filtered) (see Table 3). All peptide samples were prepared to a concentration of 1, 5, 7.5 or 15 mg/ml. All samples, with the exception of reference peptides GIP(3-30), AT158, and AT482 dissolved readily and produced clear and colorless solutions with gentle mixing. Peptide samples were subsequently filtered through 0.22 μm nylon filters (Q-Max® RR syringe filter, 13 mm, Frisenette, DK) to produce particle-free solutions. All samples were added to a 96-well plate reader for the ThT assay at t=0.
For each sample, […] ThT (1 mM) was added to 1.2 mL peptide solution. From this sample mixture, an amount of 200 uL/well was pipetted into four or five wells (n=4 or 5). Blank samples (buffer+ThT) were also included. One 3 mm silica bead was added to each well containing samples and the plate was subjected to orbital rotation at 300 rpm to agitate and stress the samples. The temperature was kept at 25° C. throughout the measurement.

[2] = Solubility by visual inspection of peptide solutions; format: physicochemical
Method: as §1
Clear visual appearance may be taken as an indicator of the immediate solubility of the peptide. […] Thus, A13Aib and/or N24E substitutions appear to increase solubility.

SMILES: CC[C@H](C)[C@H](NC(=O)[C@H](CO)NC(=O)[C@H](Cc1ccc(O)cc1)NC(=O)[C@H](CC(=O)O)NC(=O)[C@H](CO)NC(=O)[C@@H](NC(=O)[C@H](Cc1ccccc1)NC(=O)[C@@H](NC(=O)CNC(=O)[C@@H](N)CCC(=O)O)[C@@H](C)O)[C@@H](C)CC)C(=O)N[C@@H](C)C(=O)N[C@@H](CCSC)C(=O)N[C@@H](CC(=O)O)C(=O)N[C@@H](CCCCN)C(=O)N[C@H](C(=O)N[C@@H](CCCCNC(=O)CCCCCCCCCCCCCCC(=O)O)C(=O)N[C@@H](CCC(N)=O)C(=O)N[C@@H](CCC(N)=O)C(=O)N[C@@H](C)C(=O)N[C@@H](Cc1ccccc1)C(=O)N[C@H](C(=O)N[C@@H](CCC(=O)O)C(=O)N[C@@H](Cc1c[nH]c2ccccc12)C(=O)N[C@@H](CC(C)C)C(=O)N[C@@H](CC(C)C)C(=O)N[C@@H](C)C(=O)N[C@@H](CCC(N)=O)C(=O)N[C@@H](CCCCN)C(=O)N1CCC[C@H]1C(=O)N[C@@H](CO)C(=O)N[C@@H](CO)C(=O)NCC(=O)N[C@@H](C)C(=O)N1CCC[C@H]1C(=O)N1CCC[C@H]1C(=O)N1CCC[C@H]1C(=O)N[C@@H](CO)C(=O)O)C(C)C)[C@@H](C)CC [AT745] (H-EGTFISDYSIAMDKIK(C16 diacid)QQAFVEWLLAQKPSSGAPPPS-OH; N-terminus assumed)
- Avr lag time ([1]; 1 mg/ml, TFA, Phosphate (7.4)): <24 h
- Visual appearance ([2]; 1 mg/ml, TFA, Phosphate (7.4)): Clear

SMILES: CC[C@H](C)[C@H](NC(=O)[C@H](CCCCN)NC(=O)[C@H](CCC(=O)O)NC(=O)[C@H](CC(C)C)NC(=O)C(C)(C)NC(=O)[C@@H](NC(=O)[C@H](CO)NC(=O)[C@H](Cc1ccc(O)cc1)NC(=O)[C@H](CCC(=O)O)NC(=O)[C@H](CO)NC(=O)[C@@H](NC(=O)[C@H](Cc1ccccc1)NC(=O)[C@@H](NC(=O)CNC(=O)[C@@H](N)CCC(=O)O)[C@@H](C)O)[C@@H](C)CC)[C@@H](C)CC)C(=O)N[C@@H](CCCCNC(=O)[C@H](C)NC(=O)[C@H](CCC(=O)O)NC(=O)[C@H](CC(C)C)NC(=O)[C@H](C)NC(=O)CCCCCCCCCCCCCCC(=O)O)C(=O)N[C@@H](CCC(N)=O)C(=O)N[C@@H](CCC(N)=O)C(=O)N[C@@H](CCC(=O)O)C(=O)N[C@@H](Cc1ccccc1)C(=O)N[C@H](C(=O)N[C@@H](CCC(=O)O)C(=O)N[C@@H](Cc1c[nH]c2ccccc12)C(=O)N[C@@H](CC(C)C)C(=O)N[C@@H](CC(C)C)C(=O)N[C@@H](C)C(=O)N[C@@H](CCC(N)=O)C(=O)N[C@@H](CCCCN)C(=O)N1CCC[C@H]1C(=O)N[C@@H](CO)C(=O)N[C@@H](CO)C(=O)NCC(=O)N[C@@H](C)C(=O)N1CCC[C@H]1C(=O)N1CCC[C@H]1C(=O)N1CCC[C@H]1C(=O)N[C@@H](CO)C(=O)O)C(C)C [AT725] (H-EGTFISEYSI[Aib]LEKIK([Ala-Glu-Leu-Ala-C16 diacid])QQEFVEWLLAQKPSSGAPPPS-OH; N-terminus assumed)
- Avr lag time (h) ([1]; 1 mg/ml, TFA, Phosphate (7.4)): fnd (Fnd = fibrils not detected within experiment time (96 hours) with agitation.)
- Visual appearance ([2]; 1 mg/ml, TFA, Phosphate (7.4)): Clear

SMILES: CC[C@H](C)[C@H](NC(=O)[C@H](C)NC(=O)[C@H](CC(=O)O)NC(=O)[C@H](CCSC)NC(=O)[C@H](C)NC(=O)[C@@H](NC(=O)[C@H](CO)NC(=O)[C@H](Cc1ccc(O)cc1)NC(=O)[C@H](CC(=O)O)NC(=O)[C@H](CO)NC(=O)[C@@H](NC(=O)[C@H](Cc1ccccc1)NC(=O)[C@@H](NC(=O)CNC(=O)[C@@H](N)CCC(=O)O)[C@@H](C)O)[C@@H](C)CC)[C@@H](C)CC)C(=O)N[C@@H](CCCCNC(=O)CCCCCCCCCCCCCCC(=O)O)C(=O)N[C@@H](CCC(N)=O)C(=O)N[C@@H](CCC(N)=O)C(=O)N[C@@H](CC(=O)O)C(=O)N[C@@H](Cc1ccccc1)C(=O)N[C@H](C(=O)N[C@@H](CCC(=O)O)C(=O)N[C@@H](Cc1c[nH]c2ccccc12)C(=O)N[C@@H](CC(C)C)C(=O)N[C@@H](CC(C)C)C(=O)N[C@@H](C)C(=O)N[C@@H](CCC(N)=O)C(=O)N[C@@H](CCCCN)C(=O)N1CCC[C@H]1C(=O)N[C@@H](CO)C(=O)N[C@@H](CO)C(=O)NCC(=O)N[C@@H](C)C(=O)N1CCC[C@H]1C(=O)N1CCC[C@H]1C(=O)N1CCC[C@H]1C(=O)N[C@@H](CO)C(=O)O)C(C)C [AT748] (H-EGTFISDYSIAMDAIK(C16 diacid)QQDFVEWLLAQKPSSGAPPPS-OH; N-terminus assumed)
- Avr lag time ([1]; 1 mg/ml, TFA, Phosphate (7.4)): <24 h
- Visual appearance ([2]; 1 mg/ml, TFA, Phosphate (7.4)): Clear

SMILES: CC[C@H](C)[C@H](NC(=O)[C@H](CO)NC(=O)[C@H](Cc1ccc(O)cc1)NC(=O)[C@H](CC(=O)O)NC(=O)[C@H](CO)NC(=O)[C@@H](NC(=O)[C@H](Cc1ccccc1)NC(=O)[C@@H](NC(=O)CNC(=O)[C@@H](N)CCC(=O)O)[C@@H](C)O)[C@@H](C)CC)C(=O)N[C@@H](C)C(=O)N[C@@H](CCSC)C(=O)N[C@@H](CC(=O)O)C(=O)N[C@@H](CCCCN)C(=O)N[C@H](C(=O)N[C@@H](CCCCNC(=O)CCCCCCCCCCCCCCCCCCC(=O)O)C(=O)N[C@@H](CCC(N)=O)C(=O)N[C@@H](CCC(N)=O)C(=O)N[C@@H](CC(=O)O)C(=O)N[C@@H](Cc1ccccc1)C(=O)N[C@H](C(=O)N[C@@H](CCC(=O)O)C(=O)N[C@@H](Cc1c[nH]c2ccccc12)C(=O)N[C@@H](CC(C)C)C(=O)N[C@@H](CC(C)C)C(=O)N[C@@H](C)C(=O)N[C@@H](CCC(N)=O)C(=O)N[C@@H](CCCCN)C(=O)N1CCC[C@H]1C(=O)N[C@@H](CO)C(=O)N[C@@H](CO)C(=O)NCC(=O)N[C@@H](C)C(=O)N1CCC[C@H]1C(=O)N1CCC[C@H]1C(=O)N1CCC[C@H]1C(=O)N[C@@H](CO)C(=O)O)C(C)C)[C@@H](C)CC [AT750] (H-EGTFISDYSIAMDKIK(C20 diacid)QQDFVEWLLAQKPSSGAPPPS-OH; N-terminus assumed)
- Avr lag time (h) ([1]; 1 mg/ml, TFA, Phosphate (7.4)): fnd (Fnd = fibrils not detected within experiment time (96 hours) with agitation.)
- Visual appearance ([2]; 1 mg/ml, TFA, Phosphate (7.4)): Clear

SMILES: CC[C@H](C)[C@H](NC(=O)[C@H](CCCCN)NC(=O)[C@H](CCC(=O)O)NC(=O)[C@H](CC(C)C)NC(=O)C(C)(C)NC(=O)[C@@H](NC(=O)[C@H](CO)NC(=O)[C@H](Cc1ccc(O)cc1)NC(=O)[C@H](CCC(=O)O)NC(=O)[C@H](CO)NC(=O)[C@@H](NC(=O)[C@H](Cc1ccccc1)NC(=O)[C@@H](NC(=O)CNC(=O)CCCC(=O)O)[C@@H](C)O)[C@@H](C)CC)[C@@H](C)CC)C(=O)N[C@@H](CCCCNC(=O)CCCCCCCCCCCCCCC(=O)O)C(=O)N[C@@H](CCC(N)=O)C(=O)N[C@@H](CCC(N)=O)C(=O)N[C@@H](CCC(=O)O)C(=O)N[C@@H](Cc1ccccc1)C(=O)N[C@H](C(=O)N[C@@H](CCC(=O)O)C(=O)N[C@@H](Cc1c[nH]c2ccccc12)C(=O)N[C@@H](CC(C)C)C(=O)N[C@@H](CC(C)C)C(=O)N[C@@H](C)C(=O)N[C@@H](CCC(N)=O)C(=O)N[C@@H](CCCCN)C(=O)N1CCC[C@H]1C(=O)N[C@@H](CO)C(=O)N[C@@H](CO)C(=O)NCC(=O)N[C@@H](C)C(=O)N1CCC[C@H]1C(=O)N1CCC[C@H]1C(=O)N1CCC[C@H]1C(=O)N[C@@H](CO)C(=O)O)C(C)C [AT717] (Glutaryl-GTFISEYSI[Aib]LEKIK(C16 diacid)QQEFVEWLLAQKPSSGAPPPS-OH)
- Avr lag time (h) ([1]; 1 mg/ml, TFA, Phosphate (7.4)): fnd (Fnd = fibrils not detected within experiment time (96 hours) with agitation.)
- Avr lag time (h) ([1]; 7.5 mg/ml, Na, MilliQ (8)): fnd (Fnd = fibrils not detected within experiment time (96 hours) with agitation.)
- Avr lag time (h) ([1]; 15 mg/ml, Na, MilliQ (8)): fnd (Fnd = fibrils not detected within experiment time (96 hours) with agitation.)
- Visual appearance ([2]; 1 mg/ml, TFA, Phosphate (7.4)): Clear
- Visual appearance ([2]; 7.5 mg/ml, Na, MilliQ (8)): Clear
- Visual appearance ([2]; 15 mg/ml, Na, MilliQ (8)): Clear

SMILES: CC[C@H](C)[C@H](NC(=O)[C@H](CO)NC(=O)[C@H](Cc1ccc(O)cc1)NC(=O)[C@H](CC(=O)O)NC(=O)[C@H](CO)NC(=O)[C@@H](NC(=O)[C@H](Cc1ccccc1)NC(=O)[C@@H](NC(=O)CNC(=O)[C@@H](N)CCC(=O)O)[C@@H](C)O)[C@@H](C)CC)C(=O)N[C@@H](C)C(=O)N[C@@H](CCSC)C(=O)N[C@@H](CC(=O)O)C(=O)N[C@@H](CCCCN)C(=O)N[C@H](C(=O)N[C@@H](Cc1c[nH]cn1)C(=O)N[C@@H](CCC(N)=O)C(=O)N[C@@H](CCC(N)=O)C(=O)N[C@@H](CC(=O)O)C(=O)N[C@@H](Cc1ccccc1)C(=O)N[C@H](C(=O)N[C@@H](CCC(=O)O)C(=O)N[C@@H](Cc1c[nH]c2ccccc12)C(=O)N[C@@H](CC(C)C)C(=O)N[C@@H](CC(C)C)C(=O)N[C@@H](C)C(=O)N[C@@H](CCC(N)=O)C(=O)N[C@@H](CCCCN)C(=O)N1CCC[C@H]1C(=O)N[C@@H](CO)C(=O)N[C@@H](CO)C(=O)NCC(=O)N[C@@H](C)C(=O)N1CCC[C@H]1C(=O)N1CCC[C@H]1C(=O)N1CCC[C@H]1C(=O)N[C@@H](CO)C(=O)N[C@@H](CCCCNC(=O)CCCCCCCCCCCCCCC(=O)O)C(=O)O)C(C)C)[C@@H](C)CC [AT744] (H-EGTFISDYSIAMDKIHQQDFVEWLLAQKPSSGAPPPSK(C16 diacid)-OH; N-terminus assumed)
- Avr lag time (h) ([1]; 1 mg/ml, TFA, Phosphate (7.4)): fnd (Fnd = fibrils not detected within experiment time (96 hours) with agitation.)
- Visual appearance ([2]; 1 mg/ml, TFA, Phosphate (7.4)): Clear
